Values of other authors as cited in patent US20030170318A1, “Fluoride compositions and uses thereof” (priority 2000, published 2003).

Legend:
Ras/RasGAP complex = settings: fluoride salt added to mixed Ras and GAP; free fluoride needed in solution
normal cells = settings: pre, simultaneous and post-treatments; Trenimon-induced chromosomal aberrations
mutant RhoGAP = settings: arginine to alanine mutant, in the presence of aluminum fluoride
Drosophila = settings: mutation induced by Trenimon and 1-phenyl-3,3-dimethyltriazene
[1] = tested on: human leukemia (HL-60) cells
[2] = children
[3] = tested on: osteosarcoma cell line UMR 106; settings: 0.5 mM fluoride, UMR 106 cultures

## [F-].[F-].[Mg+2] [magnesium fluoride]
Ras/RasGAP complex
  Ras/RasGAP complex formation: readily formed

## [F-].[Na+] [sodium fluoride]
Normal cells
  frequency of undamaged mitosis: significantly enhanced

## [Be+2].[F-].[F-] [beryllium fluoride, reference compound]
Ras/RasGAP complex
  Ras/RasGAP complex formation: readily formed

## aluminum fluoride
Ras/RasGAP complex
  Ras/RasGAP complex formation: readily formed
Mutant RhoGAP
  hydrolysis of RhoGTP to RhoGDP by mutant RhoGAP: as effective as normal RhoGAP

## F [fluoride]
Drosophila
  antimutagenic effect: strong antimutagenic effect
[1]
  cell death: causes cell death
[1]; cleaves poly(ADP-ribose) polymerase
  caspase-3 activation leading to apoptosis: activation of caspase-3
[2]
  fluoride retained of all fluoride consumed: twenty
other
  toxic blood plasma fluoride level: about 15 μM
[3]
  apoptosis: induction of apoptosis
  cell proliferation: decrease in cell proliferation
